# Assay results from publication PMC10258805, “Nonpeptidic Oxazole-Based Prolyl Oligopeptidase Ligands with Disease-Modifying Effects on α-Synuclein Mouse Models of Parkinson’s Disease” (Journal of Medicinal Chemistry, 2023).
# Entries after “also recorded” stand apart in the source; their conditions may differ.
# Legend:
# [1] = tested on: αSyn dimerization in HEK-293 PREP-KO cells; test: αSyn-dimerization assay in PREP-KO cells; type: cell-based, human
# [2] = tested on: pPP2Ac and PP2Ac in mouse brain; test: PP2A markers in mouse brain (Western blot); type: in vivo; settings: 10 mg/kg i.p., 45 min after injection
# [3] = target: T1, PREP in HEK-293 cells (Homo sapiens, UniProt P48147); test: Cellular thermal shift assay (CETSA); type: cell-based; settings: 10 μM, 1 h
# T1 construct: endogenous in cells; host or cells: HEK-293 (ATCC)
# T1 sequence (P48147 1-710): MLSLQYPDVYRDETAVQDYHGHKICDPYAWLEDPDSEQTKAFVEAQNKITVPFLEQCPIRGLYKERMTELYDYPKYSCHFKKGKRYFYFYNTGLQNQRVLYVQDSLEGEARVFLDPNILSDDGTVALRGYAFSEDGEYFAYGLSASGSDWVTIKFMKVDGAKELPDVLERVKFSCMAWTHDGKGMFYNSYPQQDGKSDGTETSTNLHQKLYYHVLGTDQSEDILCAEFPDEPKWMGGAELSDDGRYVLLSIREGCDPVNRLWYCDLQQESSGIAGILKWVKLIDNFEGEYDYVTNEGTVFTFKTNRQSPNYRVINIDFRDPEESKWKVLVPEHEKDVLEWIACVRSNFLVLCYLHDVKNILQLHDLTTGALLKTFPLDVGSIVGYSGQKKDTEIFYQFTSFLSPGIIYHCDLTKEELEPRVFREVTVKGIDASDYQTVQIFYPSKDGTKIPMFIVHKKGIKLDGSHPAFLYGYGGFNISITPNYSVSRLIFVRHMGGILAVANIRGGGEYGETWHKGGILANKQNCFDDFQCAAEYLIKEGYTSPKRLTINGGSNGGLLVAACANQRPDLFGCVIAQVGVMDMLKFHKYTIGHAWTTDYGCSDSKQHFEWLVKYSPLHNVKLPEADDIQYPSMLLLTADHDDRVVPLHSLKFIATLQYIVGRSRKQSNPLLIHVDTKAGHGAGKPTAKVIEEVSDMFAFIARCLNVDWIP
# Description: CETSA was performed as previously described.[41] HEK-293 cells were seeded to T25 flasks with a density of 1 × 10^6 cells. […] After the exposure, the cells were collected in PBS and aliquoted into 7 PCR tubes (100,000 cells/tube). The cells were prewarmed at 37 °C for 3 min, then heated to 37, 47, 50, 53, 56, 63, or 67 °C for 3 min and subsequently cooled at 25 °C for 3 min using a PCR Mastercycler (T100 Thermal Cycler, Bio-Rad). After heating, the cells were disrupted with two freeze–thaw cycles by submerging the tubes into liquid nitrogen and subsequently thawed by incubation at 25 °C for 3 min. The aggregated proteins were removed by centrifugation (at 20,000g for 20 min at 4 °C), and the soluble fractions were diluted with Laemmli buffer (Bio-Rad, Hercules, CA) and analyzed with Western blot as described above. The nondenaturated protein fractions (%) were calculated by comparing the intensities of temperature-treated cell samples to the corresponding cell samples from 37 °C.
# [4] = target: T2, Recombinant human DPP2 (Homo sapiens, UniProt Q9UHL4); test: Close-relative enzyme specificity assay, DPP2; type: biochemical; settings: 1 or 10 μM
# T2 construct: purchased R&D Systems 3438-SE-010
# Description: DPP2: Recombinant human DPP2 was purchased from R&D Systems (#3438-SE-010).
# DPP2: Lys-Ala-pNA was used as the substrate at a concentration of 1 mM at pH 5.5 (100 mM NaAc, 10 mM EDTA, 14 μg/mL aprotinin). […] The substrate was added, and the velocities of pNA release were measured kinetically at 405 nm for at least 10 min at 37 °C. Measurements were done on the Infinite 200 as above.
smiles,measurement,setting,value
"Cc1nc(CCCc2ccccc2)oc1N1CCC[C@H]1C#N [HUP-55, (S)-1-(4-Methyl-2-(3-phenylpropyl)oxazol-5-yl)pyrrolidine-2-carbonitrile]",effect on αSyn dimerization,[1],no effect on αSyn dimerization
same,inactive pPP2Ac levels in mouse brain (in words),[2],"decreased inactive pPP2Ac levels, but this was not significant"
same,levels of PP2Ac in mouse brain (in words),[2],significantly increased the levels of PP2Ac
same,fitted mean aggregation temperature,[3],53.19 °C
same,increase in the fitted mean aggregation temperature,[3]; vs DMSO,3.01 °C
same,inhibition of DPP2,[4],no inhibition; also recorded: does not inhibit
